The structures appear in SMILES notation. Peptide text beside a SMILES is read from it.

Sequence of hMC4-R (P32245 whole entry): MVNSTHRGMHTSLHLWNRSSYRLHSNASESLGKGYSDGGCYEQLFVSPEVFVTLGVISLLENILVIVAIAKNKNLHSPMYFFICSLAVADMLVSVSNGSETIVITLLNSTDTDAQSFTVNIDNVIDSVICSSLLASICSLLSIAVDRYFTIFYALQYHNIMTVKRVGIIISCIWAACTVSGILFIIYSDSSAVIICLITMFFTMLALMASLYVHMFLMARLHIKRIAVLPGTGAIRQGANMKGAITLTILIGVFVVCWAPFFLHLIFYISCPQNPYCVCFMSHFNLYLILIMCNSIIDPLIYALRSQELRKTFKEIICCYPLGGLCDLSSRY

This assay addresses hMC4-R (Homo sapiens (Human), UniProt P32245). The experiment in a line: Competitive inhibition binding assay using [I125]-NDP-α-MSH, hMC4-R membranes. The settings on record: averaged; [I125]-NDP-α-MSH (values not marked *); read-out: MC4-R Ki. As for the experimental part:
A competitive inhibition binding assay is performed using membrane homogenates prepared from HEK-293 cells that express recombinant hMC4-R, hMC3-R, or hMC5-R, and from B-16 mouse melanoma cells (containing endogenous MC1-R). In some instances, HEK-293 cells that express recombinant hMC1-R were employed. In the examples that follow, all MC3-R, MC4-R and MC5-R values are for human recombinant receptors. […] Membrane homogenates were incubated with 0.2 nM (for hMC4-R) 0.4 nM (for MC3-R and MC5-R) or 0.1 nM (for mouse B16 MC1-R or hMC1-R) [I^125]-NDP-α-MSH (Perkin Elmer) and increasing concentrations of test peptides of the present invention in buffer containing 25 mM HEPES buffer (pH 7.5) with 100 mM NaCl, 2 mM CaCl2, 2 mM MgCl2, 0.3 mM 1,10-phenanthroline, and 0.2% bovine serum albumin. After incubation for 60 minutes at 37° C., the assay mixture was filtered and the membranes washed three times with ice-cold buffer. Filters were dried and counted in a gamma counter for bound radioactivity. […] Maximal specific binding (100%) was defined as the difference in radioactivity (cpm) bound to cell membranes in the absence and presence of 1 μM NDP-α-MSH. […] Each assay was conducted in triplicate and the actual mean values are described, with results less than 0% reported as 0%. Ki values for test peptides of the present invention were determined using Graph-Pad Prism® curve-fitting software.
In the case of `CC(=O)N[C@@H](CCCNC(=N)N)C(=O)N[C@H]1CCNC(=O)CCC[C@@H](C(=O)O)NC(=O)[C@H](Cc2c[nH]c3ccccc23)NC(=O)[C@H](CCCNC(=N)N)NC(=O)[C@@H](Cc2ccccc2)NC(=O)[C@H](CCN)NC1=O` [compound 136, Ac-Arg-cyclo(Dab-Dab- D-Phe-Arg-Trp-hGlu)- OH], the inhibition constant Ki stood at 35 nM.
For `CC(=O)N[C@@H](CCC(N)=O)C(=O)N[C@H]1CC(=O)NCCCC[C@@H](C(N)=O)NC(=O)[C@H](Cc2c[nH]c3ccccc23)NC(=O)[C@H](CCCNC(=N)N)NC(=O)[C@@H](Cc2ccccc2)NC(=O)[C@H](CCN)NC1=O` [compound 142, Ac-Gln-cyclo(Asp-Dab- D-Phe-Arg-Trp-Lys)- NH2] (HELM PEPTIDE1{[ac].Q.D.[Dab].[dF].R.W.K.[am]}$PEPTIDE1,PEPTIDE1,3:R3-8:R3$$$V2.0), the Ki was found to be 15 nM.
Turning to `CC(=O)N[C@@H](CCCNC(=N)N)C(=O)N[C@H]1CC(=O)NCCCC[C@@H](C(N)=O)NC(=O)[C@H](Cc2c[nH]c3ccccc23)NC(=O)[C@H](CCCNC(=N)N)NC(=O)[C@@H](Cc2ccccc2)NC(=O)[C@@H]2C[C@@H](O)CN2C1=O` [compound 79, Ac-Arg-cyclo(Asp-Hyp- D-Phe-Arg-Trp-Lys)- NH2], the Ki was 4 nM.
`CC(=O)N[C@@H](CCCNC(=N)N)C(=O)N[C@H]1CCCCNC(=O)C[C@@H](C(N)=O)NC(=O)[C@H](Cc2c[nH]c3ccccc23)NC(=O)[C@H](CCCNC(=N)N)NC(=O)[C@@H](Cc2ccccc2)NC(=O)[C@H](CCC(N)=O)NC1=O` [compound 151, Ac-Arg-cyclo(Lys-Gln- D-Phe-Arg-Trp-Asp)- NH2] (HELM PEPTIDE1{[ac].R.K.Q.[dF].R.W.D.[am]}$PEPTIDE1,PEPTIDE1,3:R3-8:R3$$$V2.0): the inhibition constant (Ki) worked out at 4 nM.
The value for `CC(=O)N[C@@H](CCCNC(=N)N)C(=O)N[C@H]1CC(=O)NCCCC[C@@H](C(N)=O)NC(=O)[C@H](Cc2c[nH]c3ccccc23)NC(=O)[C@H](CCCNC(=N)N)NC(=O)[C@@H](Cc2ccccc2)NC(=O)[C@H](CO)NC1=O` [Peptide No. 3, Ac-Arg-cyclo(Asp-Ser- D-Phe-Arg-Trp-Lys)- NH2] was 172 nM; that for `CC(=O)N[C@@H](CCCNC(=N)N)C(=O)N[C@H]1CC(=O)NCCCC[C@@H](C(N)=O)NC(=O)[C@H](Cc2c[nH]c3ccccc23)NC(=O)[C@H](CCCNC(=N)N)NC(=O)[C@@H](Cc2cccc3ccccc23)NC(=O)[C@H](Cc2c[nH]cn2)NC1=O` [compound 19, Ac-Arg-cyclo(Asp-His- D-Nal 1-Arg-Trp-Lys)- NH2] was 3 nM; that for `CC(=O)N[C@@H](CCCNC(=N)N)C(=O)N[C@H]1CCCCNC(=O)C[C@@H](C(=O)O)NC(=O)[C@H](Cc2c[nH]c3ccccc23)NC(=O)[C@H](CCCNC(=N)N)NC(=O)[C@@H](Cc2ccccc2)NC(=O)[C@H](CCN)NC1=O` [compound 131, Ac-Arg-cyclo(Lys-Dab- D-Phe-Arg-Trp-Asp)- OH] (HELM PEPTIDE1{[ac].R.K.[Dab].[dF].R.W.D}$PEPTIDE1,PEPTIDE1,3:R3-8:R3$$$V2.0) was 35 nM.
For the compound `CC(=O)N[C@@H](CCCNC(N)=O)C(=O)N[C@H]1CC(=O)NCCCC[C@@H](C(N)=O)NC(=O)[C@H](Cc2c[nH]c3ccccc23)NC(=O)[C@H](CCCNC(=N)N)NC(=O)[C@@H](Cc2ccccc2)NC(=O)[C@H](CCN)NC1=O` [compound 141, Ac-Cit-cyclo(Asp-Dab- D-Phe-Arg-Trp-Lys)- NH2], the Ki turned out to be 9 nM.
To `CC(=O)N[C@@H](CCCNC(=N)N)C(=O)N[C@H]1CCC(=O)NCCC[C@@H](C(=O)O)NC(=O)[C@H](Cc2c[nH]c3ccccc23)NC(=O)[C@H](CCCNC(=N)N)NC(=O)[C@@H](Cc2ccccc2)NC(=O)[C@H](Cc2c[nH]cn2)NC1=O` [compound 82, Ac-Arg-cyclo(Glu-His- D-Phe-Arg-Trp-Orn)- OH] (HELM PEPTIDE1{[ac].R.E.H.[dF].R.W.[Orn]}$PEPTIDE1,PEPTIDE1,3:R3-8:R3$$$V2.0) belongs 4 nM; to `CC(=O)N[C@@H](CCCNC(=N)N)C(=O)N[C@H]1CC(=O)NCCCC[C@@H](C(=O)NC2CC2)NC(=O)[C@H](Cc2c[nH]c3ccccc23)NC(=O)[C@H](CCCNC(=N)N)NC(=O)[C@@H](Cc2ccccc2)NC(=O)[C@H](CCN)NC1=O` [compound 122, Ac-Arg-cyclo(Asp-Dab- D-Phe-Arg-Trp-Lys)- NH-cyclopropyl], 3 nM; to `CC(=O)N[C@@H](CCCNC(=N)N)C(=O)N[C@H]1CC(=O)NCCCC[C@@H](C(N)=O)NC(=O)[C@H](Cc2c[nH]c3ccccc23)NC(=O)[C@H](CCCNC(=N)N)NC(=O)[C@@H](Cc2ccccc2)NC(=O)CN(C)C1=O` [compound 63, Ac-Arg-cyclo(Asp-Sar- D-Phe-Arg-Trp-Lys)- NH2], 15 nM.
The value for `CC(=O)N[C@@H](CCCNC(=N)N)C(=O)N[C@H]1CC(=O)NCCCC[C@@H](C(N)=O)NC(=O)[C@H](Cc2c[nH]c3ccccc23)NC(=O)[C@H](CCCNC(=N)N)NC(=O)[C@@H](Cc2ccccc2)NC(=O)[C@H](CCC(N)=O)NC1=O` [compound 57, Ac-Arg-cyclo(Asp-Gln- D-Phe-Arg-Trp-Lys)-OH] was 115 nM; that for `CC(=O)N[C@@H](CCCNC(=N)N)C(=O)N[C@H]1CCCNC(=O)CC[C@@H](C(N)=O)NC(=O)[C@H](Cc2c[nH]c3ccccc23)NC(=O)[C@H](CCCNC(=N)N)NC(=O)[C@@H](Cc2ccccc2)NC(=O)[C@H](Cc2c[nH]cn2)NC1=O` [compound 75, Ac-Arg-cyclo(Orn-His- D-Phe-Arg-Trp-Glu)- NH2] (HELM PEPTIDE1{[ac].R.[Orn].H.[dF].R.W.E.[am]}$PEPTIDE1,PEPTIDE1,3:R3-8:R3$$$V2.0) was 0.6 nM.
To `CC(=O)N[C@@H](CCCNC(=N)N)C(=O)N[C@H]1CC(=O)NCCCC[C@@H](C(=O)O)NC(=O)[C@H](Cc2c[nH]c3ccccc23)NC(=O)[C@H](CCCNC(=N)N)NC(=O)[C@@H](Cc2ccccc2)NC(=O)[C@@H]2C[C@@H](OCc3ccccc3)CN2C1=O` [compound 54, Ac-Arg-cyclo(Asp- Hyp(Bzl)-D-Phe-Arg- Trp-Lys)-OH] belongs 3 nM; to `CC(=O)N[C@@H](CCCNC(=N)N)C(=O)N[C@H]1CCCC(=O)NCC[C@@H](C(N)=O)NC(=O)[C@H](Cc2c[nH]c3ccccc23)NC(=O)[C@H](CCCNC(=N)N)NC(=O)[C@@H](Cc2ccccc2)NC(=O)[C@H](CCS(C)(=O)=O)NC1=O` [compound 145, Ac-Arg-cyclo(hGlu- Met(O2)-D-Phe-Arg- Trp-Dab)-NH2] (HELM PEPTIDE1{[ac].R.[O=C([C@H](CCCC(=O)[*:3])N[*:1])[*:2]].[CS(=O)(=O)CC[C@H](N[*:1])C(=O)[*:2]].[dF].R.W.[Dab].[am]}$PEPTIDE1,PEPTIDE1,3:R3-8:R3$$$V2.0), 4 nM; to `N=C(N)NCCC[C@@H]1NC(=O)[C@@H](Cc2ccccc2)NC(=O)[C@H](Cc2c[nH]cn2)NC(=O)[C@@H](NC(=O)[C@@H](N)CCCNC(=N)N)CCCNC(=O)CC[C@@H](C(N)=O)NC(=O)[C@H](Cc2c[nH]c3ccccc23)NC1=O` [compound 99, Arg-cyclo(Orn-His-D- Phe-Arg-Trp-Glu)-NH2] (HELM PEPTIDE1{R.[Orn].H.[dF].R.W.E.[am]}$PEPTIDE1,PEPTIDE1,2:R3-7:R3$$$V2.0), 6 nM.
As for `CC(=O)N[C@@H](CCCNC(=N)N)C(=O)N[C@H]1CC(=O)NCCCC[C@@H](C(N)=O)NC(=O)[C@H](Cc2c[nH]c3ccccc23)NC(=O)[C@H](CCCNC(=N)N)NC(=O)[C@@H](Cc2ccccc2)NC(=O)[C@H](Cc2cccc(C(N)=O)c2)NC1=O` [compound 49, Ac-Arg-cyclo(Asp-Phe- (3-(C(═O)—NH2))-D-Phe- Arg-Trp-Lys)-NH2], the inhibition constant (Ki) came out at 15 nM.
Regarding `N=C(N)NCCC[C@H](NC(=O)Cc1ccccc1)C(=O)N[C@H]1CC(=O)NCCCC[C@@H](C(N)=O)NC(=O)[C@H](Cc2c[nH]c3ccccc23)NC(=O)[C@H](CCCNC(=N)N)NC(=O)[C@@H](Cc2ccccc2)NC(=O)[C@H](CCN)NC1=O` [compound 140, Phenylacetyl-Arg- cyclo(Asp-Dab-D-Phe- Arg-Trp-Lys)-NH2], the inhibition constant (Ki) is 2 nM.
The value for `CC(=O)N[C@@H](CCCNC(=N)N)C(=O)N[C@H]1CCC(=O)NCCC[C@@H](C(=O)O)NC(=O)[C@H](Cc2c[nH]c3ccccc23)NC(=O)[C@H](CCCNC(=N)N)NC(=O)[C@@H](Cc2ccccc2)NC(=O)[C@H](CCCN)NC1=O` [compound 90, Ac-Arg-cyclo(Glu-Orn- D-Phe-Arg-Trp-Orn)- OH] was 9 nM; that for `CC(=O)N[C@@H](CCCNC(=N)N)C(=O)N[C@H]1CCCCNC(=O)C[C@@H](C(N)=O)NC(=O)[C@H](Cc2c[nH]c3ccccc23)NC(=O)[C@H](CCCNC(=N)N)NC(=O)[C@@H](Cc2ccccc2)NC(=O)[C@H](CCN)NC1=O` [compound 121, Ac-Arg-cyclo(Lys-Dab- D-Phe-Arg-Trp-Asp)- NH2] (HELM PEPTIDE1{[ac].R.K.[Dab].[dF].R.W.D.[am]}$PEPTIDE1,PEPTIDE1,3:R3-8:R3$$$V2.0) was 0.4 nM; that for `CC(=O)N[C@@H](CCCNC(=N)N)C(=O)N[C@H]1CC(=O)NCCCC[C@@H](C(=O)O)NC(=O)[C@H](Cc2c[nH]c3ccccc23)NC(=O)[C@H](CCCNC(=N)N)NC(=O)[C@@H](Cc2ccccc2)NC(=O)[C@H](CCCN)NC1=O` [compound 58, Ac-Arg-cyclo(Asp-Orn- D-Phe-Arg-Trp-Lys)-OH] was 23 nM.

These data come from US8846601B2, “Melanocortin receptor-specific peptides” (Palatin Technologies, Inc., priority 2009, dated 2014).
